Peptide text beside a SMILES is read from it. * marks the point of attachment. Boc = CC(C)(C)OC(=O)*; OBn = c1ccc(CO*)cc1
These compounds were tested on Plasmodium falciparum Dd2 asexual blood stage parasites (assay: microbe, parasite or virus in culture). Details: Plasmodium falciparum, DD2, Erythrocyte, 72 h.
Parameters: species or system Plasmodium falciparum Dd2 in human erythrocytes; single determination (one 11-point concentration-response curve)

| SMILES | AC50 [µM] |
| --- | --- |
| CCCCCCSc1ccc([C@@H]2[C@H]3C(=O)N(CC)C(=O)[C@H]3[C@]3(C(=O)OC)CCCCN23)cc1OC [MLS001362153-01] | 15 |
| CCN1CCN(Cc2ccc(NC(=O)c3ccc(C)c(NC(=O)C4=NN(c5ccccc5)C(=O)C4)c3)cc2C(F)(F)F)CC1 [MLS003105987-01] | 8.41 |
| O=C(c1cccs1)c1cn(CCOc2ccc(Cl)cc2)c2ccccc12 [NCGC00101601-01] | 5.96 |
| Cc1ccc(C)c(OCCn2cc(C(=O)c3ccco3)c3ccccc32)c1 [NCGC00101856-01] | 5.31 |
| O=C(c1ccco1)c1cn(CCOc2ccc(F)cc2)c2ccccc12 [NCGC00101884-01] | 6.68 |

Same assay, conditions: Plasmodium falciparum, DD2, Erythrocyte, 72 h; read-out: AC50

| SMILES | AC50 [µM] |
| --- | --- |
| O=C(Nc1ccncc1)Nc1ccc(Cl)cc1 [MLS001224591-01] | 10.6 |
| O=c1nc(C2CCN(S(=O)(=O)/C=C/c3ccccc3)CC2)[nH]c2c1nnn2Cc1ccc(F)cc1 [MLS001229566-01] | 13.3 |
| COc1ccc(Nc2ccccc2NC(=O)c2ccccc2Br)cc1 [MLS001233685-01] | 5.96 |
| CC(C)CC(NC(=O)C(NC(=O)OC(C)(C)C)C(C)C)C(=O)NC(CCC(=O)OCc1ccccc1)C(N)=O (stereo not drawn) [MLS001304946-01] (Boc-Val-Leu-Glu(OBn)-NH2; configuration not given here) | 8.41 |
| CCOC(=O)c1c(CSC(=N)N)n(-c2ccc(C)cc2)c2cc(Br)c(OC(C)=O)cc12 [MLS001304955-01] | 5.96 |
| CCCn1c(=N)c(C(=O)NCc2ccc3c(c2)OCO3)cc2c(=O)n3cccc(C)c3nc21 [MLS001305712-01] | 10.6 |
| CC(=O)Nc1ccc(Nc2cc(C)nc(Nc3ccc(NC(C)=O)cc3)n2)cc1 [MLS001359830-01] | 3.35 |
| O=C(NCCc1c[nH]c2ccccc12)C(=O)Nc1cc2c3c(c1)CC(=O)N3CCC2 [MLS001361834-01] | 10.6 |
| CCCCCCSc1ccc([C@H]2N[C@@](Cc3ccccc3)(C(=O)OC)[C@H]3C(=O)N(CC)C(=O)[C@@H]23)cc1 [MLS001362744-01] | 3.35 |
| Clc1ccc(C(Cn2ccnc2)OCc2csc3c(Cl)cccc23)c(Cl)c1 (stereo not drawn) [MLS002154122-01] | 2.37 |
| CC(C(=O)N1CCCC1)N1CCN(S(=O)(=O)c2ccc(C(C)(C)C)cc2)CC1 (stereo not drawn) [MLS002156464-01] | 3.35 |
| CC(Oc1ccccc1)C(=O)Nc1nc(-c2ccccn2)cs1 (stereo not drawn) [MLS002158763-01] | 8.41 |
| O=S(=O)(c1ccc(F)cc1)N1CCN(C(S)=NC2CC2)CC1 [MLS002161026-01] | 3.35 |
| COc1ccccc1NS(=O)(=O)c1cc(NC(=O)c2cccc(S(=O)(=O)N(C)C)c2)ccc1N1CCOCC1 [MLS002162226-01] | 7.5 |
| CCN(CC)CCNC(=O)c1ccc(NC(=O)c2cccc(S(=O)(=O)N3CCc4ccccc43)c2)cc1 [MLS002169644-01] | 5.31 |
| CC(C(=O)NC1CCCC1)N1CCN(S(=O)(=O)c2ccc(C(C)(C)C)cc2)CC1 (stereo not drawn) [MLS002169740-01] | 8.41 |
| CC(=O)NCCC(=O)Nc1cc(S(=O)(=O)N2CCCCC2)ccc1N1CCCCC1 [MLS002181171-01] | 7.5 |
| O=C1N(c2ccccc2C(F)(F)F)O[C@@]1(c1ccccc1)C1CCCCC1 [MLS002206598-01] | 5.31 |
| O=C1N(c2ccccc2C(F)(F)F)O[C@@]1(c1ccccc1)C1CCCC1 [MLS002206604-01] | 2.99 |
| Oc1ccc(Cl)cc1CNCC1CCCCC1 [MLS002207458-01] | 4.22 |
| O=C1C=C(c2cccc(CO)c2)C[C@@H](c2ccc(Cl)cc2)C1 [MLS002302575-01] | 3.76 |
| COC(=O)C1=C(c2ccc(-c3ccccc3)c(F)c2)C[C@@H]2CC[C@H]1N2C(=O)NCc1cccc2ccccc12 [MLS002302696-01] | 10.6 |
| COC(=O)C1=C(c2ccc(OC(F)(F)F)cc2)C[C@@H]2CC[C@H]1N2C(=O)NCc1cccc2ccccc12 [MLS002302720-01] | 3.35 |
| COC(=O)C1=C(c2ccc(OC)c(OC)c2)C[C@@H]2CC[C@H]1N2C(=O)NCc1cccc2ccccc12 [MLS002302726-01] | 3.35 |

| SMILES | AC50 [µM] |
| --- | --- |
| COc1ccc(-c2c(C#Cc3ccsc3)c3cc(-c4cccc5[nH]ccc45)ccc3n2C)cc1 [MLS002391587-01] | 6.68 |
| COc1cc(C#Cc2c(-c3cncn3C)n(C)c3ccc(-c4ccc(OC)c(OC)c4)cc23)cc(OC)c1 [MLS002391599-01] | 4.73 |
| COc1ccc(-c2cc(C(=O)Nc3cc(OC)cc(C(=O)Nc4cccc(C(F)(F)F)c4)c3)[nH]n2)cc1 [MLS003105955-01] | 5.31 |
| COc1cc(NC(=O)c2ccc(N)nc2)cc(C(=O)Nc2cccc(C(F)(F)F)c2)c1 [MLS003105961-01] | 5.31 |
| CCCNCC(O)COc1ccccc1C(=O)CCc1ccccc1 (stereo not drawn) [NCGC00015819-06] | 0.841 |
| CC(C)C[C@@H](NC(=O)[C@@H](O)[C@H](N)Cc1ccccc1)C(=O)O [NCGC00093685-01] | 2.99 |
| N#Cc1nn(-c2c(Cl)cc(C(F)(F)F)cc2Cl)c(N)c1[S+]([O-])C(F)(F)F (stereo not drawn) [NCGC00094574-06] | 9.44 |
| CO/N=C1\CN(c2nc3c(cc2F)c(=O)c(C(=O)O)cn3C2CC2)CC1CN (stereo not drawn) [NCGC00095182-01] | 9.44 |
| COc1ccc(-n2nc3ccc(NC(=O)c4ccc(-c5cc(Cl)ccc5Cl)o4)cc3n2)cc1 [NCGC00098498-01] | 4.22 |
| CC(C)Oc1ccc(C(=O)Nc2ccc3oc(-c4ccncc4)nc3c2)cc1 [NCGC00098730-01] | 8.41 |
| Cc1cccc(-n2c(/C=C/c3c(C)[nH]c4ccccc34)nc3ccccc3c2=O)c1 [NCGC00098794-01] | 3.76 |
| Cc1ccccc1NC(=O)c1c(NC(=O)c2ccco2)sc2c1CCC(C(C)(C)C)C2 (stereo not drawn) [NCGC00099842-01] | 13.3 |
| COC(=O)c1ccc2nc(C)cc(Nc3ccc(O)cc3)c2c1 [NCGC00099848-01] | 9.44 |
| Cc1ccc(-c2nnc(Nc3ccc(O)cc3)c3ccccc23)cc1[S+](=O)([O-])N1CCN(C)CC1 [NCGC00099994-01] | 6.68 |
| COC(=O)c1ccc(Nc2nnc(-c3ccc(C)c([S+](=O)([O-])N4CCN(C)CC4)c3)c3ccccc23)cc1 [NCGC00099996-01] | 8.41 |
| COc1cc(-c2nc(-c3ccccc3)c(-c3ccc(Br)cc3)[nH]2)cc(OC)c1O [NCGC00100017-01] | 2.11 |
| Cc1ccc(-c2nnc(Nc3ccc(OCC(N)=O)cc3)c3ccccc23)cc1[S+](=O)([O-])NCC1CCCO1 (stereo not drawn) [NCGC00100178-01] | 4.73 |
| CCCCN1C(=O)C(O)(CC(=O)c2ccc(C(C)(C)C)cc2)c2ccccc21 (stereo not drawn) [NCGC00100209-01] | 4.73 |
| CCCn1c(=N)c(C(=O)NC2CCCC2)cc2c(=O)n3cccc(C)c3nc21 [NCGC00100358-01] | 5.96 |
| Cc1cccn2c(=O)c3cc(C(=O)NC(C)c4ccccc4)c(=N)n(CCOCCO)c3nc12 (stereo not drawn) [NCGC00100488-01] | 10.6 |
| CC1CCCN(Cc2c(O)ccc3c(=O)c(-c4ccc(Cl)cc4)c(C(F)(F)F)oc23)C1 (stereo not drawn) [NCGC00100583-01] | 0.841 |
| CC1CCCN(Cc2c(O)ccc3c(=O)c(Oc4ccc(C(C)(C)C)cc4)c(C(F)(F)F)oc23)C1 (stereo not drawn) [NCGC00100587-01] | 0.299 |
| COc1ccc(NC(=O)c2sc3nc4c(c(-c5ccc(OC)cc5)c3c2N)C(=O)CC(C)(C)C4)cc1 [NCGC00100714-01] | 1.88 |
| COc1ccc(-c2c3c(nc4sc(C(=O)Nc5ccc(F)cc5)c(N)c24)CC(C)(C)CC3=O)cc1 [NCGC00100718-01] | 0.944 |

| SMILES | AC50 [µM] |
| --- | --- |
| COc1ccc(-c2c3c(nc4sc(C(=O)Nc5ccc(Cl)cc5)c(N)c24)CC(C)(C)CC3=O)cc1 [NCGC00100738-01] | 0.376 |
| CCOC(=O)c1sc(NC(=O)C2c3ccccc3Oc3ccccc32)c(C(=O)OCC)c1C [NCGC00100913-01] | 2.66 |
| CCCCn1c(=N)c(C(=O)NC2CCCCC2)cc2c(=O)n3cccc(C)c3nc21 [NCGC00101037-01] | 1.5 |
| Cc1cc(Oc2c(C(F)(F)F)oc3c(CN4CCC(C)CC4)c(O)ccc3c2=O)cc(C)c1Cl [NCGC00101140-01] | 0.75 |
| CCOC(=O)c1sc(NC(=O)C(C)Sc2nc(-c3ccccc3)cc(C(F)(F)F)n2)c(C(=O)OC)c1C (stereo not drawn) [NCGC00101272-01] | 2.37 |
| CCN(CC)C(=O)c1sc(NC(=O)C(C)Sc2nc(-c3ccccc3)cc(C(F)(F)F)n2)c(C(=O)OC)c1C (stereo not drawn) [NCGC00101276-01] | 0.596 |
| Cc1ccc(Oc2c(C(F)(F)F)oc3c(CN4CCC(C)CC4)c(O)ccc3c2=O)cc1 [NCGC00101480-01] | 1.68 |
| CC1CCN(Cc2c(O)ccc3c(=O)c(Oc4ccccc4Cl)c(C(F)(F)F)oc23)CC1 [NCGC00101482-01] | 1.33 |
| CCc1ccc(Oc2c(C(F)(F)F)oc3c(CN4CCN(C)CC4)c(O)ccc3c2=O)cc1 [NCGC00101488-01] | 0.75 |
| COc1ccc(Oc2c(C(F)(F)F)oc3c(CN4CCCC(C)C4)c(O)ccc3c2=O)cc1 (stereo not drawn) [NCGC00101510-01] | 2.37 |
| CC1CCCN(Cc2c(O)ccc3c(=O)c(Oc4ccccc4Cl)c(C(F)(F)F)oc23)C1 (stereo not drawn) [NCGC00101512-01] | 2.11 |
| CCc1ccc(Oc2c(C(F)(F)F)oc3c(CN4CCCC(C)C4)c(O)ccc3c2=O)cc1 (stereo not drawn) [NCGC00101514-01] | 1.33 |
| CCOc1ccc(CN(CCc2ccc3c(c2)OCO3)Cc2cc(OC)ccc2O)cc1 [NCGC00101752-01] | 0.668 |
| Cc1ccccc1OCCn1cc(C(=O)c2ccco2)c2ccccc21 [NCGC00101854-01] | 5.31 |
| COc1ccc(OCCn2cc(C(=O)c3ccco3)c3ccccc32)cc1 [NCGC00101886-01] | 2.11 |
| CCCOc1cccc(C2c3c(oc4cc(C)c(C)cc4c3=O)C(=O)N2CCCN2CCOCC2)c1 (stereo not drawn) [NCGC00101917-01] | 13.3 |
| O=C(Nc1ccccc1)c1cc2c(-c3ccccc3)nn(-c3ccccc3)c2s1 [NCGC00102084-01] | 3.35 |
| O=C(Nc1ccc(Cl)cc1)c1cc2c(-c3ccccc3)nn(-c3ccccc3)c2s1 [NCGC00102088-01] | 2.37 |
| Cc1ccccc1NC(=O)c1cc2c(-c3ccccc3)nn(-c3ccccc3)c2s1 [NCGC00102094-01] | 11.9 |
| Cn1c2ccc(F)cc2c2nnc(SCCN3CCCCC3)nc21 [NCGC00102309-01] | 15 |
| CCOC(=O)c1ccc(NC2=CC(c3ccc(F)cc3)N(c3ccc(C(=O)OCC)cc3)C2=O)cc1 (stereo not drawn) [NCGC00102598-01] | 8.41 |
| COc1cc(/C=C(\C#N)c2nc3ccccc3[nH]2)cc(Cl)c1OCc1ccccc1Cl [NCGC00102602-01] | 5.31 |

From article PMC7822874, “Chemoprotective antimalarials identified through quantitative high-throughput screening of Plasmodium blood and liver stage parasites” (Scientific Reports, 2021)
